Experimental data from PubChem BioAssay AID248 (DTP/NCI, 2004).
Where “and” joins values, the source holds several entries; their conditions need not be identical. Equal entries are not always repeated. Inconclusive results and toxic doses are left out.

Tested on: L1210 leukemia ip in BDF1 mice, survival T/C
Assay: NCI In Vivo Anticancer Drug Screen. Data for tumor model L1210 Leukemia (intraperitoneal) in B6D2F1 (BDF1) mice
Conditions: endpoint: mean survival time, higher = longer survival
Outline: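 Read-out is survival time, reported as the treated-group measurement over the vehicle-control measurement.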

[1] = dose: 100.0 mg/kg/injection, schedule: Q01DX009 (ip), vehicle: saline with Tween-80
[2] = dose: 200.0 mg/kg/injection, schedule: Q01DX009 (ip), vehicle: saline with Tween-80
[3] = dose: 100.0 mg/kg/injection, schedule: Q01DX009 (ip), vehicle: saline
[4] = dose: 100.0 mg/kg/injection, schedule: Q04DX003 (ip), vehicle: saline
[5] = dose: 200.0 mg/kg/injection, schedule: Q01DX009 (ip), vehicle: saline
[6] = dose: 200.0 mg/kg/injection, schedule: Q04DX003 (ip), vehicle: saline
[7] = dose: 400.0 mg/kg/injection, schedule: Q04DX003 (ip), vehicle: saline
[8] = dose: 25.0 mg/kg/injection, schedule: Q01DX009 (ip), vehicle: saline
[9] = dose: 50.0 mg/kg/injection, schedule: Q01DX009 (ip), vehicle: saline
[10] = dose: 100.0 mg/kg/injection, schedule: Q01DX001 (ip), vehicle: saline with Tween-80

With `O=C(C1=C(C(=O)c2ccccc2)C2C=CC1C2)c1ccccc1` the T/C (dose: 75.0 mg/kg/injection, schedule: Q04DX003 (ip), vehicle: Klucel (hydroxypropylcellulose) (HPC)) was 96 % of control, the T/C (dose: 150.0 mg/kg/injection, schedule: Q04DX003 (ip), vehicle: Klucel (hydroxypropylcellulose) (HPC)) was 94 % of control and the T/C (dose: 300.0 mg/kg/injection, schedule: Q04DX003 (ip), vehicle: Klucel (hydroxypropylcellulose) (HPC)) was 89 % of control.

With `CC(C)C(=O)/C=C/c1ccc(Cl)cc1` the T/C (dose: 100.0 mg/kg/injection, schedule: Q04DX002 (ip), vehicle: gum acacia) was 95 % of control, the T/C (dose: 200.0 mg/kg/injection, schedule: Q04DX002 (ip), vehicle: gum acacia) was 92 % of control and the T/C (dose: 400.0 mg/kg/injection, schedule: Q04DX002 (ip), vehicle: gum acacia) was 92 % of control.

`CSc1cc(C)c(OC(=O)Nc2ccccc2F)c(CO)c1` was tested, and the T/C [1] was 97 % of control, the T/C [2] was 98 % of control and the T/C (dose: 400.0 mg/kg/injection, schedule: Q01DX009 (ip), vehicle: saline with Tween-80) was 114 % of control.

`CCOC(=O)C(Cc1ccccc1[N+](=O)[O-])C(=O)OCC` was tested, and the T/C (dose: 100.0 mg/kg/injection, schedule: Q01DX001 (ip), vehicle: saline) was 103 % of control, the T/C [3] was 103 % of control and 89 % of control and the T/C (dose: 100.0 mg/kg/injection, schedule: Q04DX002 (ip), vehicle: saline) was 112 % of control and 113 % of control. The T/C [4] was 94 % of control, the T/C (dose: 200.0 mg/kg/injection, schedule: Q01DX001 (ip), vehicle: saline) was 101 % of control and the T/C [5] was 93 % of control and 105 % of control. For the same compound, the T/C (dose: 200.0 mg/kg/injection, schedule: Q04DX002 (ip), vehicle: saline) was 108 % of control, the T/C [6] was 103 % of control and the T/C (dose: 400.0 mg/kg/injection, schedule: Q01DX001 (ip), vehicle: saline) was 100 % of control. For the same compound, the T/C (dose: 400.0 mg/kg/injection, schedule: Q01DX009 (ip), vehicle: saline) was 96 % of control and 105 % of control, the T/C (dose: 400.0 mg/kg/injection, schedule: Q04DX002 (ip), vehicle: saline) was 102 % of control and 108 % of control and the T/C [7] was 103 % of control.

`COC1OC(CN(CCO)CCO)C2OC(C)(C)OC12` (centres undefined) was tested, and the T/C (dose: 12.5 mg/kg/injection, schedule: Q04DX003 (ip), vehicle: saline) was 97 % of control, the T/C [8] was 98 % of control and the T/C (dose: 25.0 mg/kg/injection, schedule: Q04DX003 (ip), vehicle: saline) was 89 % of control. For the same compound, the T/C [9] was 94 % of control, the T/C (dose: 50.0 mg/kg/injection, schedule: Q04DX003 (ip), vehicle: saline) was 97 % of control and the T/C [3] was 89 % of control. For the same compound, the T/C [4] was 94 % of control and the T/C (dose: 335.0 mg/kg/injection, schedule: Q01DX009 (ip), vehicle: saline) was 101 % of control.

With `CCOC(=O)CN1C(=O)C(Cl)=C(Cl)C1=O` the T/C (dose: 3.12 mg/kg/injection, schedule: Q01DX009 (ip), vehicle: saline with Tween-80) was 98 % of control, the T/C (dose: 6.25 mg/kg/injection, schedule: Q01DX009 (ip), vehicle: saline with Tween-80) was 98 % of control and the T/C (dose: 12.5 mg/kg/injection, schedule: Q01DX009 (ip), vehicle: saline with Tween-80) was 96 % of control.

`CC(=O)OCC1OC(NC(=O)N(CCCl)N=O)C(OC(C)=O)C(OC(C)=O)C1OC(C)=O` (centres undefined) was tested, and the T/C (dose: 6.0 mg/kg/injection, schedule: Q01DX001 (ip), vehicle: saline with Tween-80) was 246 % of control, the T/C (dose: 9.0 mg/kg/injection, schedule: Q01DX001 (ip), vehicle: saline with Tween-80) was 342 % of control and the T/C (dose: 13.0 mg/kg/injection, schedule: Q01DX001 (ip), vehicle: saline with Tween-80) was 428 % of control. For the same compound, the T/C (dose: 20.0 mg/kg/injection, schedule: Q01DX001 (ip), vehicle: saline with Tween-80) was 393 % of control and the T/C (dose: 30.0 mg/kg/injection, schedule: Q01DX001 (ip), vehicle: saline with Tween-80) was 324 % of control.

With `CCCCCCCCCCCCCCCCSC1CC(=O)N(c2ccc3c(c2)Cc2ccccc2-3)C1=O` (centres undefined) the T/C (dose: 100.0 mg/kg/injection, schedule: Q04DX003 (ip), vehicle: Klucel (hydroxypropylcellulose) (HPC)) was 96 % of control, the T/C (dose: 200.0 mg/kg/injection, schedule: Q04DX003 (ip), vehicle: Klucel (hydroxypropylcellulose) (HPC)) was 96 % of control and the T/C (dose: 400.0 mg/kg/injection, schedule: Q04DX003 (ip), vehicle: Klucel (hydroxypropylcellulose) (HPC)) was 100 % of control.

For `C[C@H]1C[C@@H]2[C@H]([C@@H](O)C[C@@]3(C)[C@H]2CC[C@]3(O)C(=O)CO)[C@@]2(C)C=CC(=O)C=C12`, the T/C (dose: 6.25 mg/kg/injection, schedule: Q01DX009 (ip), vehicle: Klucel (hydroxypropylcellulose) (HPC)) was 104 % of control, the T/C (dose: 12.5 mg/kg/injection, schedule: Q01DX009 (ip), vehicle: Klucel (hydroxypropylcellulose) (HPC)) was 104 % of control and the T/C (dose: 12.5 mg/kg/injection, schedule: Q01DX Z (sc), vehicle: water) was 107 % of control. The T/C (dose: 25.0 mg/kg/injection, schedule: Q01DX009 (ip), vehicle: Klucel (hydroxypropylcellulose) (HPC)) was 102 % of control, the T/C (dose: 25.0 mg/kg/injection, schedule: Q01DX Z (sc), vehicle: water) was 108 % of control and the T/C (dose: 50.0 mg/kg/injection, schedule: Q01DX009 (ip), vehicle: Klucel (hydroxypropylcellulose) (HPC)) was 98 % of control. For the same compound, the T/C (dose: 50.0 mg/kg/injection, schedule: Q01DX Z (sc), vehicle: water) was 107 % of control, the T/C (dose: 100.0 mg/kg/injection, schedule: Q01DX009 (ip), vehicle: Klucel (hydroxypropylcellulose) (HPC)) was 107 % of control and the T/C (dose: 100.0 mg/kg/injection, schedule: Q01DX Z (sc), vehicle: water) was 110 % of control. The T/C (dose: 200.0 mg/kg/injection, schedule: Q01DX009 (ip), vehicle: Klucel (hydroxypropylcellulose) (HPC)) was 104 % of control and the T/C (dose: 200.0 mg/kg/injection, schedule: Q01DX Z (sc), vehicle: water) was 115 % of control.

With `CCOC(=O)c1ccc(N=Nc2ccc([N+](=O)[O-])cc2)cc1` the T/C (dose: 100.0 mg/kg/injection, schedule: Q04DX002 (ip), vehicle: saline with Tween-80) was 105 % of control, the T/C (dose: 200.0 mg/kg/injection, schedule: Q04DX002 (ip), vehicle: saline with Tween-80) was 105 % of control and the T/C (dose: 400.0 mg/kg/injection, schedule: Q04DX002 (ip), vehicle: saline with Tween-80) was 112 % of control.

With `Nc1nc(=S)[nH][nH]1` the T/C (dose: 50.0 mg/kg/injection, schedule: Q01DX009 (ip), vehicle: saline with Tween-80) was 105 % of control, the T/C [10] was 104 % of control and the T/C [1] was 117 % of control. For the same compound, the T/C (dose: 100.0 mg/kg/injection, schedule: Q04DX003 (ip), vehicle: saline with Tween-80) was 104 % of control, the T/C (dose: 200.0 mg/kg/injection, schedule: Q01DX001 (ip), vehicle: saline with Tween-80) was 105 % of control and the T/C [2] was 101 % of control. For the same compound, the T/C (dose: 200.0 mg/kg/injection, schedule: Q04DX003 (ip), vehicle: saline with Tween-80) was 98 % of control.

`Nc1ccc2ncccc2c1` was tested, and the T/C [8] was 97 % of control, the T/C [9] was 93 % of control and the T/C [3] was 105 % of control and 90 % of control. The T/C (dose: 100.0 mg/kg/injection, schedule: Q04DX002 (ip), vehicle: alcohol) was 96 % of control, the T/C [4] was 94 % of control and the T/C [5] was 90 % of control. The T/C (dose: 200.0 mg/kg/injection, schedule: Q04DX002 (ip), vehicle: alcohol) was 101 % of control, the T/C [6] was 96 % of control and the T/C (dose: 400.0 mg/kg/injection, schedule: Q04DX002 (ip), vehicle: alcohol) was 109 % of control. The T/C [7] was 107 % of control.

`CN(CCS(=O)(=O)O)/N=C/c1ccc2c(c1)OCO2` was tested, and the T/C (dose: 25.0 mg/kg/injection, schedule: Q01DX009 (ip), vehicle: alcohol) was 112 % of control, the T/C (dose: 50.0 mg/kg/injection, schedule: Q01DX009 (ip), vehicle: alcohol) was 102 % of control and the T/C [10] was 92 % of control. The T/C (dose: 100.0 mg/kg/injection, schedule: Q01DX009 (ip), vehicle: alcohol) was 101 % of control, the T/C (dose: 150.0 mg/kg/injection, schedule: Q01DX009 (ip), vehicle: Klucel (hydroxypropylcellulose) (HPC)) was 94 % of control and the T/C (dose: 225.0 mg/kg/injection, schedule: Q01DX009 (ip), vehicle: Klucel (hydroxypropylcellulose) (HPC)) was 97 % of control.

With `CC(=O)N[C@H](CO)[C@H](O)c1ccc([N+](=O)[O-])cc1` the T/C (dose: 100.0 mg/kg/injection, schedule: Q04DX003 (ip), vehicle: saline sonified) was 98 % of control, the T/C (dose: 200.0 mg/kg/injection, schedule: Q04DX003 (ip), vehicle: saline sonified) was 104 % of control and the T/C (dose: 400.0 mg/kg/injection, schedule: Q04DX003 (ip), vehicle: saline sonified) was 103 % of control.

With `CC(=O)Nc1cc(C)ccc1C` the T/C (dose: 50.0 mg/kg/injection, schedule: Q01DX001 (ip), vehicle: Klucel (hydroxypropylcellulose) (HPC)) was 101 % of control, the T/C (dose: 100.0 mg/kg/injection, schedule: Q01DX001 (ip), vehicle: Klucel (hydroxypropylcellulose) (HPC)) was 91 % of control and 101 % of control and the T/C (dose: 200.0 mg/kg/injection, schedule: Q01DX001 (ip), vehicle: Klucel (hydroxypropylcellulose) (HPC)) was 94 % of control and 104 % of control. The T/C (dose: 400.0 mg/kg/injection, schedule: Q01DX001 (ip), vehicle: Klucel (hydroxypropylcellulose) (HPC)) was 94 % of control.
